Measured values: ChEMBL document CHEMBL1201862, “PubChem BioAssay data set” (2004)
Active and inactive are the calls of the source.

Assays:
[1] = rise of 2N DNA cells, HeLa – IC50, dose response (AID 1117349); format: functional, cell-based
[2] = CellTiter-Glo luminescence survival assay, SW480 colon tumor line, concentration-response curve, half-maximal inhibitory concentration (AID 1117338); format: functional
[3] = IC50 of insulin release inhibition, rat insulinoma INS-1E line, 5 mM glucose, cell-based (AID 1117331); format: functional
[4] = RKO cell viability reduction, dose response, CellTiter-Glo luminescence (AID 1117322); format: functional
[5] = cytotoxicity toward HCT116 cells – cell-based, CellTiter-Glo luminescence, IC50, dose response (AID 1117332); format: functional; settings: HCT-116
[6] = SNU-C1 cell viability reduction, dose response, CellTiter-Glo luminescence (AID 1117323); format: functional, cell-based
[7] = glucagon-like peptide-1 release potency in STC-1, concentration-response, half-maximal inhibitory concentration in the STC-1 line (AID 1117345); format: functional, cell-based
[8] = cytotoxicity toward Colo320 cells – cell-based, CellTiter-Glo luminescence, IC50, dose response (AID 1117334); format: functional; settings: COLO 320
[9] = rise of 4N DNA cells, HeLa – IC50, dose response (AID 1117351); format: functional, cell-based
[10] = cytotoxicity toward HT-29 cells – cell-based, CellTiter-Glo luminescence, IC50, dose response (AID 1117330); format: functional
[11] = Reduced DLD-1 viability, concentration-response, CellTiter-Glo luminescence (AID 1117352); format: functional
[12] = HCT116 cell viability decrease, GSK3B pretreatment – CellTiter-Glo, IC50, dose response (AID 1117339); format: functional; settings: HCT-116
[13] = Potency on glucagon-like peptide 1 release, dose-response in NCI-H716 cell line, half maximal inhibitory concentration (AID 1117344); format: functional, cell-based
[14] = toxicity to A549 lung cells – cell-based, plate reader, dry powder, set 6, cytotoxicity control, dose response (AID 743312); format: functional
[15] = Late stage assay provider results from the probe development effort to identify inhibitors of the Plasmodium falciparum M18 Aspartyl Aminopeptidase (M18AAP): radiolabel-based cell-based dose response assay to identify compounds that inhibit P. falciparum growth in RBCs, Set 2..; format: functional
Protein Tat = Protein Tat (Human immunodeficiency virus type 1 group M subtype B (isolate HXB2)(HIV-1), UniProt P04608); format: functional;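 further: tat binding to TAR RNA read out by fluorescence polarization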
[16] = HIV-1 Vif–A3G interaction blockers – biochemical, TR-FRET, GST-Vif 1-94, biotin-A3G peptide, dose response retest, primary screen (AID 1117319); format: functional;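 further: TR-FRET signal of purified GST-Vif binding a biotinylated A3G peptide; inhibitors lower the FRET signal by blocking Vif and A3G binding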
[17] = Luminescence-based cell-based high throughput dose response assay to identify activators of the DAF-12 from the parasite S. stercoralis (ssDAF-12).; format: functional
[18] = biological target: T1, Oxysterols receptor LXR-beta (Homo sapiens, UniProt P55055); experiment: LXR agonists, Gal4 luciferase reporter, dose response, counter-screen for ssDAF-12 agonist project, cell-based, luminescence, HEK293, S. stercoralis campaign (AID 720737); format: functional; settings: read-out: IC50 (the source's name)
T1 sequence (P55055 whole entry): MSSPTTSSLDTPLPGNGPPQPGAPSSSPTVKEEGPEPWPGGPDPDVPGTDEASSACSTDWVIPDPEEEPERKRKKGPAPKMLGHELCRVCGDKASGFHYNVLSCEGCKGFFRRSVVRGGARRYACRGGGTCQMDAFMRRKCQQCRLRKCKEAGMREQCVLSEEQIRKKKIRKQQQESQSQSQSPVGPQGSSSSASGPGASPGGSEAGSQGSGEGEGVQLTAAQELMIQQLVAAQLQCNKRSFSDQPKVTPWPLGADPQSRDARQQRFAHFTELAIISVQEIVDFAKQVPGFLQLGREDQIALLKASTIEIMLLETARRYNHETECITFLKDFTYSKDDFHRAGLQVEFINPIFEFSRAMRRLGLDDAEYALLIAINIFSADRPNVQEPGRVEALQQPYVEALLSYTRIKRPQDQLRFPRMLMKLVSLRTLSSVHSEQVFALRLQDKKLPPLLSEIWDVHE

[19] = viability inhibitors of stage V gametocytes – luminescence, dose response (AID 1117278); format: functional, cell-based;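 further: gametocytes exposed to compound for 24 hours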
[20] = viability loss in human Jurkat cells – cell-based, luminescence, cytotoxicity control for P. falciparum gametocyte viability project, dose response (AID 1117277); format: functional;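 further: potency reflects loss of cellular ATP meaning fewer viable cells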
[21] = viability of PTEN-deleted HCT116 cells – cell-based, HCT116 PTEN knockout, dose response (AID 1047); format: functional;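 further: HCT116 colon tumor cells with PTEN knocked out; cells exposed to compound for 60 hours before readout; potency for loss of cell viability measured by luminescence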
[22] = viability of HCT116 lacking mutant beta-catenin – cell-based, human colon tumor, dose response (AID 1045); format: functional;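 further: HCT116 colon tumor cells with beta catenin knocked out; cells exposed to compound for 60 hours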
[23] = IC50 of Artemis nuclease activity blockers – biochemical, fluorescence intensity, dose response (AID 720701); format: functional;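 further: Artemis endonuclease enzyme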
[24] = activation of miR-122 Renilla sensor silencing – cell-based, Huh7 psiCHECK-miR122, Renilla luciferase, cherry-picked, dose response (AID 651956); format: functional;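 further: huh7 hepatoma cells stably carrying a psiCHECK-2 miR-122 sensor plasmid; renilla luciferase signal reporting endogenous miR-122 activity after 48 h compound exposure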
[25] = cytotoxicity in HEK293 background cells – cell-based, dry powder, set 2, counter-screen for EBV LMP1 inhibitor project, dose response (AID 624374); format: functional
Paired box protein Pax-8 = Paired box protein Pax-8 (Homo sapiens, UniProt Q06710); experiment: PAX8 transcriptional activity inhibition in RMG-I – RMG-I cells, luciferase, cherry-pick, dose response (AID 687027); format: functional, cell-based;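 further: luciferase reporter driven by Pax8 target thyroperoxidase promoter measured by SteadyGlo luminescence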
[26] = inhibitors acting on PAX2 in cells – cell-based, plate reader, dry powder samples, selectivity assay for PAX8 inhibitor project, dose response (AID 743048); format: functional;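 further: HEK293 cells carrying a WT1 promoter luciferase reporter driven by expressed Pax2; potency is for inhibition of Pax2 driven reporter signal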
[27] = viability loss in A549 lung cells – cell-based, 24 h, CellTiter-Glo luminescence, cherry-picks, cytotoxicity control, dose response (AID 1053115); format: functional; settings: A549, 24 h
[28] = PAX5 cellular inhibition readout – cell-based, plate reader, dry powder samples, selectivity assay for PAX8 inhibitor project, dose response (AID 743047); format: functional;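 further: HEK293 cells carrying a Pax5 driven CD19 promoter luciferase reporter; potency of inhibitors that lower reporter luminescence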
[29] = general mammalian cell viability loss – inhibitor set, cherry-pick, set 2, cytotoxicity control for miR-122 modulator project, dose response (AID 720697); format: functional, cell-based
[30] = OV-90 cell viability loss – plate reader, dry powder, SA8, PAX8 inhibitor project, dose response (AID 743149); format: functional, cell-based
[31] = PAX8-dependent cell viability loss – plate reader, dry powder, dose response (AID 743049); format: functional, cell-based
[32] = lung carcinoma cell viability loss – CellTiter-Glo luminescence, dry powder, set 17, dose response (AID 1117284); format: functional, cell-based; settings: A549

Paired box protein Pax-8, sequence (Q06710 whole entry): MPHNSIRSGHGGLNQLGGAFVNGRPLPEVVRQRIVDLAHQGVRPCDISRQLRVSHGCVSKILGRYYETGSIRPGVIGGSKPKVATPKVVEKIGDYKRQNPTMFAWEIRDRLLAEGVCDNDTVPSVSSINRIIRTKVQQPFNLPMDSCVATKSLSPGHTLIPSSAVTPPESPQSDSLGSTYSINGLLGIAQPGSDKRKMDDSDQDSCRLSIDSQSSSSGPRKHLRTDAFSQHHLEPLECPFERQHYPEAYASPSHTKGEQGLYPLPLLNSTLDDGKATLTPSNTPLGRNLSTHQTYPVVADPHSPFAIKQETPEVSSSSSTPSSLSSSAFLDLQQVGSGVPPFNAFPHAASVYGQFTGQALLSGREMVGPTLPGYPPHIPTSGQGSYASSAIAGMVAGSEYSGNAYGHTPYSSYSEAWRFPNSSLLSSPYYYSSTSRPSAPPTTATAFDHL
Protein Tat, sequence (P04608 whole entry): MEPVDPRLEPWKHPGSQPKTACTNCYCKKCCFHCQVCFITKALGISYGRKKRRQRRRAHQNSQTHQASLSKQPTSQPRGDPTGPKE

With CN1CCCC(CC2c3ccccc3Sc3ccccc32)C1 (centres undefined) the IC50 [1] was > 10 µM (inactive), the IC50 [2] was 4.7 µM (active) and the IC50 [3] was > 11.1 µM (inactive). For the same compound, the IC50 [4] was 3.49 µM (active), the IC50 [5] was > 20 µM (inactive) and the IC50 [6] was 15.1 µM (inactive). The IC50 [7] was > 40 µM (inactive), the IC50 [8] was > 20 µM (inactive) and the IC50 [9] was > 10 µM (inactive). The IC50 [10] was 6.43 µM (inactive), the IC50 [11] was > 20 µM (inactive) and the IC50 [12] was 8.68 µM (inactive). For the same compound, the IC50 [13] was > 40 µM (inactive).
With Cc1ccc(C(C)C)c(OCCn2c(S)nc3ccccc32)c1 the AC50 [14] was 22 µM (active).
For Oc1ccc(C2CCN(c3ccnc4ccccc34)CC2)cc1O, the IC50 [15] was 1.3 µM (active).
In the case of CCOc1ccccc1N1C(=O)CC(Nc2ccc(N3CCOCC3)cc2)C1=O (centres undefined), the IC50 (Protein Tat) is reported as 16.3 µM (inconclusive) and the IC50 [16] is reported as > 50.6 µM (active).
In the case of O=C(CCn1c(=S)oc2ccccc21)NC1CCCCC1, the IC50 [17] is reported as > 67.6 µM (inactive) and the EC50 [18] is reported as > 67.6 µM (inactive).
With COc1ccccc1OCCOCCOc1ccccc1Cl the IC50 [19] was > 109 µM (inactive) and the IC50 [20] was > 83.3 µM (inactive).
With COc1ccc(Nc2nc(Nc3ccc(OC)cc3)nc(SC3=NCCS3)n2)cc1 the EC50 [21] was 40.1 µM (active), the EC50 [22] was 71.1 µM (active) and the IC50 [23] was 1.68 µM (active).
In the case of C[C@@H]1CN([C@@H](C)CO)S(=O)(=O)c2ccc(C#C[C@@H](C)O)cc2O[C@H]1CN(C)Cc1ccc(-c2ccccc2)cc1, the AC50 [24] is reported as 20.3 µM (active), the AbsAC35 [25] is reported as 211.64 µM and the AC50 (Paired box protein Pax-8) is reported as 6.61 µM (active). The AC50 [26] was > 70 µM (inactive), the AC50 [27] was 53.4 µM (active) and the AC50 [28] was 41.3 µM (active). The AC50 [29] was 8.22 µM (active), the AC50 [30] was 17.7 µM (active) and the AC50 [31] was > 70 µM (inactive). The AC50 [32] was 46.1 µM (active).
